This note sets out measurements from patent US20240156959A1, “COMBINATION THERAPY FOR THE TREATMENT OF CANCER COMPRISING AN ANTl-EGFR ANTIBODY AND AN AXL-INHIBITOR” (Yeda Research and Development Co. Ltd., priority 2021, published 2024).

The subject of assay [1] is AXL-overexpressing tumors. Put plainly: Whole exome sequencing, untreated vs TKI-treated relapsing tumors. Type of assay: in vivo, mice. As for the experimental part: (§1) Whole exome sequencing: Genomic DNA was isolated using PureLink™ Genomic DNA Mini Kit (Cat# K182002). The qualtiy of the DNA was checked by agarose gel ecltrophoresis and Qubit dsDNA HS Assay kit (Thermo Fisher Scientific). Exome sequencing libraries were prepared according to the manufacturer's instructions (Twist Human core exome kit+RefSeq Panel). Input gDNA (50 ng) from each sample was processed for enzymatic fragmentation, subsequent end repair, and dA-tailing to generate dA-tailed DNA fragments. Twist Universal Adapters were ligated to the dA-tailed DNA fragments, and purified to generate gDNA libraries ready for index introduction through amplification. A gDNA library adapted with Twist CDI primers was amplified and purified. The quality of the amplified library was confirmed using capillary electrophoresis (Bioanalyzer, Agilent). Prior to hybridization, the volume of each library was adjusted using the respective concentration of each Amplified Indexed Library. Ten libraries were multiplexed by 150 ng to give a total mass of 1500 ng. The pre-hybridization solution containing library, probes, RefSeq Panel and blockers was dried using a SpeedVac system and low heat. 0.020 ml of the fast hybridization mix was added to the dried pre-hybridization solution, and then 0.030 ml hybridization enhancer was added on top of the pre-hybridization solution. The mixture was incubated for 5 min at 95° C. and later heated for 2 hours at 60° C. in a thermal cycler (Fast Hybridization). Streptavidin Binding Beads (100 μl) were washed three times with 0.2 ml Fast Binding Buffer and re-suspended in 0.2 ml binding buffer. The hybridization mixture was added to the bead suspension and incubated for 30 min at RT with mixing. The beads were washed once, preheated in Fast Wash Buffer 1 for 5 min at 70° C., and three times with 0.2 ml of Wash Buffer2 for 5min at 48° C. DNA was eluted with 0.045 ml nuclease-free water (Streptavidin Binding Bead slurry). The captured library was amplified using PCR to enrich for fragments. The quality of the amplified libraries was verified by means of automated electrophoresis (Tapestation, Agilent). […]
(§2) Alignment and variant calling: Sequence QC was done through FastqQC 0.11.5 (Andrews 2015). Reads were mapped to human reference genome sequence (hg19; NCBI GRCh37) using bwa 0.7.12 (H. Li and Durbin 2009). […]
(§3) Animal experiments: All animal studies were approved by our institutional board and they were performed in accordance with the guidelines of the Institutional Animal Care and Use Committee (IACUC). […] Tumor volume was estimated using vernier caliper measurements of the longest axis, a/mm, and the perpendicular axis, b/mm Volumes were calculated in accordance with the equation V=(4 π/3)×(a/2)^2×(b/2). […]

Assay [2] relates to PC9 tumors. Described as above. The class given is in vivo, mice. As for the experimental part: as §1, §2, §3
The test system of assay [3] is RAD18. In words: RAD18 immunoprecipitation and immunoblotting in DTPs. Particulars: erlotinib 1 μM, 2-9 days. Type of assay: cell-based. Here is the method:
FIGS. 3A-G. AXL and RAD18 are functionally linked. (B) PC9 cells were treated with erlotinib (1 μM), or DMSO and RNA was subjected to real time PCR. (C) Transcriptomic data corresponding to 506 patients with lung adenocarcinoma were used to generate an expression correlogram of 19 DNA damage response genes. Pearson correlation coefficients are indicated in each square (see scale code). (D) Parental and RAD18 knockout cells were treated for 9 days with a TKI. Fractions of surviving DTPs are shown. (E) Naïve and RAD18-knockout cells were probed using anti-AXL or anti-RAD18 antibodies. Thereafter, the cells were processed for proximity ligation analysis (red signals). Representative images and PLA quantification are shown. Bar, 20 μm. (F) Cells were treated for 2-9 days with erlotinib (1 μM) or H2O2 (40 μM). Extracts were subjected to immunoprecipitation with an anti-RAD18 or control antibody and immunoprecipitates were immunoblotted. (G) Naïve and AXL-overexpressing cells, along with PC9ER cells, were treated with erlotinib (1 μM). Genomic DNA was isolated after 9 days and the T790M point mutation was determined using digital PCR. Shown are fraction of T790M in cellular DNA. Data are means ±SEM (4 experiments). […]

In assay [4] the test system is AXL. Put plainly: Re-analysis of AXL mRNA levels in a published patient dataset. The following applies: 23 patients, specimens prior to and after treatment, p<0.05. The class given is in vivo. From the text: FIGS. 1A-G: Upregulation of AXL is essential for resistance and tolerance. (A) PC9 cells (2×10^6) were subcutaneously implanted in nude mice. […] Tumor volumes are presented (average ±SEM). (B) 3-4 mice from each group presented in A were euthanized when tumors reached 1,500 mm 3 Tumors were extracted and subjected to immunoblotting. Tubulin (TUB) served as the loading control. (C and D) AXL-overexpressing (C) and AXL-knockout PC9 cells (2×10^6, D), along with naïve cells, were subcutaneously implanted in mice. When tumors became palpable, mice were randomized and treated as in A. (E) Data were re-analyzed for AXL mRNA levels in 23 patients with EGFR+NSCLC. Specimens (total=53) were collected at several time points, prior to and after treatment with osimertinib. (F and G) AXL-overexpressing (OX; F) or AXL-knockout PC9 cells (KO; G), along with naïve cells, were untreated or treated with TKIs (1 or 3 μM). Drugs and media were refreshed on day 3 and 6. On day 9, remaining cells (DTPs) were fixed, stained and quantified. Averages±S.D. (triplicates) are shown.

For `C#Cc1cccc(Nc2ncnc3cc(OCCOC)c(OCCOC)cc23)c1` [erlotinib], the “increase in base alterations in relapsing tumors” value (“increase in base alterations” for short) in assay [1] was determined as 2.42 fold. For the same compound, in assay [2], the “increase in base alterations” value is on record as 2.31 fold. In assay [3], the “ubiquitination of PCNA” value is on record as “increased ubiquitination of PCNA” and the “ubiquitination of RAD18” value is listed as “reduced ubiquitination of RAD18”.

In the case of `C=CC(=O)Nc1cc(Nc2nccc(-c3cn(C)c4ccccc34)n2)c(OC)cc1N(C)CCN(C)C` [osimertinib], the “increase in base alterations” value in assay [1] is on record as 2.52 fold; in assay [2] it was 2.37 fold. Also, in assay [4], the “AXL mRNA levels in EGFR tumors of patients” value is reported as “AXL up-regulation”.
